# Laboratory results as given in PubChem BioAssay (NCI).
#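 All cell lines were grown in 96-well plates and treated with compound for 48 hours. At the GI50, growth is halved. Definition used: TGI = concentration required for complete inhibition of growth.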
# Legend:
# Assay in all cases: NCI-60 cell line screen, 48 h
# [1] = tested on: 786-0 renal
# [2] = tested on: A498 renal
# [3] = tested on: A549 NSCLC
# [4] = tested on: ACHN renal
# [5] = tested on: BT-549 breast
# [6] = tested on: CAKI-1 renal
# [7] = tested on: CCRF-CEM leukemia
# [8] = tested on: COLO 205 colon
# [9] = tested on: DU-145 prostate
# [10] = tested on: EKVX NSCLC
# [11] = tested on: HCC-2998 colon
# [12] = tested on: HCT-116 colon
# [13] = tested on: HCT-15 colon
# [14] = tested on: HL-60(TB) leukemia
# [15] = tested on: HOP-62 NSCLC
# [16] = tested on: HOP-92 NSCLC
# [17] = tested on: HS 578T breast
# [18] = tested on: HT29 colon
# [19] = tested on: IGROV1 ovarian
# [20] = tested on: K-562 leukemia
# [21] = tested on: KM12 colon
# [22] = tested on: LOX IMVI melanoma
# [23] = tested on: M14 melanoma
# [24] = tested on: MALME-3M melanoma
# [25] = tested on: MCF7 breast
# [26] = tested on: MDA-MB-231 breast
# [27] = tested on: MDA-MB-435
# [28] = tested on: MOLT-4 leukemia
# [29] = tested on: NCI-H226 lung
# [30] = tested on: NCI-H23 lung
# [31] = tested on: NCI-H460 lung
# [32] = tested on: NCI-H522 lung
# [33] = tested on: NCI/ADR-RES ovarian
# [34] = tested on: OVCAR-3 ovarian
# [35] = tested on: OVCAR-4 ovarian
# [36] = tested on: OVCAR-5 ovarian
# [37] = tested on: OVCAR-8 ovarian
# [38] = tested on: PC-3 prostate
# [39] = tested on: RPMI-8226 leukemia
# [40] = tested on: RXF 393 renal
# [41] = tested on: SF-268 CNS
# [42] = tested on: SF-295 CNS
# [43] = tested on: SF-539 CNS
# [44] = tested on: SK-MEL-2 melanoma
# [45] = tested on: SK-MEL-28 melanoma
# [46] = tested on: SK-MEL-5 melanoma
# [47] = tested on: SK-OV-3 ovarian
# [48] = tested on: SN12C renal
# [49] = tested on: SNB-19 CNS
# [50] = tested on: SNB-75 CNS
# [51] = tested on: SR leukemia
# [52] = tested on: SW-620 colon
# [53] = tested on: T-47D breast
# [54] = tested on: TK-10 renal
# [55] = tested on: U251 CNS
# [56] = tested on: UACC-257 melanoma
# [57] = tested on: UACC-62 melanoma
# [58] = tested on: UO-31 renal
# [59] = tested on: MDA-N
smiles,measurement,setting,value
O=C1NC(=O)C(=Cc2cn(Cc3ccccc3)c3ccccc23)C(=O)N1,GI50,[1],17.1 µM
same,TGI,[1],33 µM
same,GI50,[2],0.125 µM
same,TGI,[2],0.594 µM
same,GI50,[3],13 µM
same,TGI,[3],30.7 µM
same,GI50,[4],19.8 µM
same,TGI,[4],53.9 µM
same,GI50,[5],15.4 µM
same,TGI,[5],50.1 µM
same,GI50,[6],2.15 µM
same,TGI,[6],10.5 µM
same,GI50,[7],20.5 µM
same,TGI,[7],> 67.2 µM
same,GI50,[8],1.13 µM
same,TGI,[8],9.44 µM
same,GI50,[9],17.5 µM
same,TGI,[9],40.4 µM
same,GI50,[10],21.3 µM
same,TGI,[10],> 63.5 µM
same,GI50,[11],10.9 µM
same,TGI,[11],29.5 µM
same,GI50,[12],11.7 µM
same,TGI,[12],27.5 µM
same,GI50,[13],14.3 µM
same,TGI,[13],38.2 µM
same,GI50,[14],21.4 µM
same,TGI,[14],81.6 µM
same,GI50,[15],15.2 µM
same,TGI,[15],37.7 µM
same,GI50,[16],1.5 µM
same,TGI,[16],19.9 µM
same,GI50,[17],8.71 µM
same,TGI,[17],29.3 µM
same,GI50,[18],23.5 µM
same,TGI,[18],> 60.8 µM
same,GI50,[19],0.489 µM
same,TGI,[19],10.5 µM
same,GI50,[20],4.23 µM
same,TGI,[20],> 48.6 µM
same,GI50,[21],15.9 µM
same,TGI,[21],31.5 µM
same,GI50,[22],14.1 µM
same,TGI,[22],33.1 µM
same,GI50,[23],17.9 µM
same,TGI,[23],44.4 µM
same,GI50,[24],18.1 µM
same,TGI,[24],45.7 µM
same,GI50,[25],6.54 µM
same,TGI,[25],23 µM
same,GI50,[26],15.2 µM
same,TGI,[26],43.9 µM
same,GI50,[27],17.9 µM
same,TGI,[27],42.3 µM
same,GI50,[28],12.9 µM
same,TGI,[28],32.9 µM
same,GI50,[29],0.951 µM
same,TGI,[29],3.29 µM
same,GI50,[30],14.1 µM
same,TGI,[30],34.2 µM
same,GI50,[31],0.264 µM
same,TGI,[31],13.4 µM
same,GI50,[32],13.1 µM
same,TGI,[32],37.2 µM
same,GI50,[33],18.4 µM
same,TGI,[33],50.3 µM
same,GI50,[34],5.75 µM
same,TGI,[34],19.4 µM
same,GI50,[35],4.84 µM
same,TGI,[35],21 µM
same,GI50,[36],0.332 µM
same,TGI,[36],2.15 µM
same,GI50,[37],17.1 µM
same,TGI,[37],43.8 µM
same,GI50,[38],11.4 µM
same,TGI,[38],30.8 µM
same,GI50,[39],8.23 µM
same,TGI,[39],> 61.3 µM
same,GI50,[40],11.6 µM
same,TGI,[40],48.3 µM
same,GI50,[41],15.8 µM
same,TGI,[41],32.9 µM
same,GI50,[42],1.39 µM
same,TGI,[42],34.5 µM
same,GI50,[43],34.3 µM
same,TGI,[43],> 100 µM
same,GI50,[44],6.41 µM
same,TGI,[44],28.3 µM
same,GI50,[45],15 µM
same,TGI,[45],30.6 µM
same,GI50,[46],11.3 µM
same,TGI,[46],> 55.5 µM
same,GI50,[47],6.3 µM
same,TGI,[47],29 µM
same,GI50,[48],13.5 µM
same,TGI,[48],40 µM
same,GI50,[49],16.2 µM
same,TGI,[49],38.9 µM
same,GI50,[50],7.61 µM
same,TGI,[50],27.1 µM
same,GI50,[51],10.6 µM
same,TGI,[51],30.5 µM
same,GI50,[52],12.1 µM
same,TGI,[52],28.9 µM
same,GI50,[53],4.09 µM
same,TGI,[53],20 µM
same,GI50,[54],2.16 µM
same,TGI,[54],8.58 µM
same,GI50,[55],12.8 µM
same,TGI,[55],28.9 µM
same,GI50,[56],7.07 µM
same,TGI,[56],35.1 µM
same,GI50,[57],2.07 µM
same,TGI,[57],15.7 µM
same,GI50,[58],12 µM
same,TGI,[58],31 µM
Cc1cc(C)c2c(c1)C/C(=C\c1cccc(C)c1C(=O)O)C2=O,TGI,[1],> 100 µM
same,TGI,[2],> 100 µM
same,TGI,[3],> 100 µM
same,TGI,[4],> 100 µM
same,TGI,[5],> 100 µM
same,TGI,[6],> 100 µM
same,TGI,[7],> 100 µM
same,TGI,[9],> 100 µM
same,TGI,[10],> 100 µM
same,TGI,[11],> 100 µM
same,TGI,[12],> 100 µM
same,TGI,[13],> 100 µM
same,TGI,[14],> 100 µM
same,TGI,[15],> 100 µM
same,TGI,[16],> 100 µM
same,TGI,[18],> 100 µM
same,TGI,[19],> 100 µM
same,TGI,[20],> 100 µM
same,TGI,[21],> 100 µM
same,TGI,[22],> 100 µM
same,TGI,[23],> 100 µM
same,TGI,[24],> 100 µM
same,TGI,[26],> 100 µM
same,TGI,[59],> 100 µM
same,TGI,[28],> 100 µM
same,TGI,[29],> 100 µM
same,TGI,[30],> 100 µM
same,TGI,[31],> 100 µM
same,TGI,[32],> 100 µM
same,TGI,[34],> 100 µM
same,TGI,[35],> 100 µM
same,TGI,[36],> 100 µM
same,TGI,[37],> 100 µM
same,TGI,[38],> 100 µM
same,TGI,[39],> 100 µM
same,TGI,[40],> 100 µM
same,TGI,[41],> 100 µM
same,TGI,[42],> 100 µM
same,TGI,[43],> 100 µM
same,TGI,[44],> 100 µM
same,TGI,[45],> 100 µM
same,TGI,[46],> 100 µM
same,TGI,[48],> 100 µM
same,TGI,[49],> 100 µM
same,TGI,[50],> 100 µM
same,TGI,[51],> 100 µM
same,TGI,[52],> 100 µM
same,TGI,[53],> 100 µM
same,TGI,[54],> 100 µM
same,TGI,[56],> 100 µM
same,TGI,[57],> 100 µM
same,TGI,[58],> 100 µM
